These results are taken from article PMC7508583, “Discovery and Preclinical Development of Antigiardiasis Fumagillol Derivatives” (Antimicrobial Agents and Chemotherapy, 2020).

The test system of assay [1] is G. lamblia GS trophozoites. The assay can be described thus: Trophozoite growth inhibition, ATP content (ATPlite) assay. The settings on record: Giardia duodenalis, 72 h, read-out: Mean [IC50 ± SE(IC50)] G. lamblia GS. Format: cell-based, Giardia lamblia. The procedure:
(§1) Antigiardia assays followed by enzyme inhibition determination facilitated the selection of compounds for permeation and stability studies by in vitro methods, prior to advancing to in vivo studies. Compound potency was evaluated first by measuring G. lamblia trophozoite growth as a function of the compound concentration and calculating the IC50 values. Potency in Entamoeba histolytica trophozoites was also determined because of the early report that fumagillin cured amebiasis ([19]). The intent was to test whether the compounds would be suitable to treat gastrointestinal amebiasis rather than the invasive form of the disease, given that the designed strategy was based on reducing compound permeation across the epithelial cell barrier. […] Trophozoite growth was determined by monitoring the ATP cell content using a high-throughput homogeneous assay developed previously for G. lamblia ([57]). The ATP content serves as a marker of cell integrity since ATP degrades rapidly when cells die and the luminescence signal generated by luciferase requires ATP. The same assay was also adopted in 96-well plates for E. histolytica trophozoite growth measurement, as described in Materials and Methods. A similar E. histolytica trophozoite ATP content assay was described previously ([58]). Fumagillin, TNP-470, and a standard-of-care drug (metronidazole) served as positive controls, and cells without the drug (in the presence of 0.5% dimethyl sulfoxide [DMSO]) served as the negative control.
(§2) Trophozoites of G. lamblia isolates WB and GS were grown anaerobically in borosilicate glass screw-cap culture tubes (Fisher Scientific) at pH 7.0 in Keister’s modified TYI-S-33 medium (ATCC). The medium was supplemented with 10% heat-inactivated bovine serum (Sigma-Aldrich) and 0.05% bovine bile (Sigma-Aldrich). To attain low-oxygen-tension conditions, the tubes were filled to 85% to 90% of their total volume capacity and incubated without shaking at 37°C. Subcultures (2 × 10^5 trophozoites per tube) were made three times a week. Detachment of trophozoites for inoculation was achieved by chilling the cultures on ice for 20 min. Culturing and detachment of metronidazole-resistant G. lamblia assemblage A 713M3 and assemblage B 1279-M1 trophozoites followed the same protocol, except that the growth medium was supplemented with metronidazole, with the concentration gradually being increased to 10 μM.
(§3) The growth inhibition assays were performed in duplicate, once for each compound, for all compounds except fumagillin, which served as a positive control and whose inhibitory ability was measured multiple times as new sets of compounds were tested. All dry compounds except for fumagillin were dissolved in dimethyl sulfoxide (DMSO; Sigma) at a stock concentration of 10 mM and then diluted 1:100 in growth medium to a final compound concentration of 100 μM; fumagillin was diluted to 20 μM. Compound solution aliquots (100 μl) were prepared by 3-fold serial dilutions in growth medium containing 0.5% DMSO and distributed into 96-well assay plates. This was followed by the addition of 10 μl G. lamblia or E. histolytica culture containing 10,000 trophozoites. Fumagillin served as a positive control, and the medium-diluted DMSO alone served as a negative control. The assay plates were placed in a BD GasPak EZ container system (BD Diagnostics) to create an anaerobic growth environment. The sealed containers were incubated at 37°C for 72 h. Following incubation, 70 μl/well of the ATPlite reagent (PerkinElmer) was added to the assay plates for one-step lysis and ATP level detection. The luminescent signals of the assay plates were measured on an EnSpire 2300 plate reader (PerkinElmer). Concentration-response titration points for each compound were fitted to a 4-parameter logistic nonlinear regression model using the KaleidaGraph tool, yielding the IC50 value and standard error (SE).
(In ATP-based viability assays light output follows the ATP content of the culture.)

Assay [2] concerns E. histolytica HM1:IMSS trophozoites. The description is as above. Format: cell-based. The settings on record: Entamoeba histolytica, 72 h, read-out: Mean [IC50 ± SE(IC50)] E. histolytica HM1: IMSS. The procedure: as §1
E. histolytica strain HM1:IMSS trophozoites were grown at 37°C in TYI-S-33 medium supplemented with penicillin (100 U/ml) and streptomycin sulfate (100 μg/ml) ([65]). Trophozoites were grown anaerobically in borosilicate tubes or T25 flasks, and subcultures were made 1 to 2 times a week. Trophozoites were detached for inoculation by chilling the cultures on ice for 20 min.
as §3, with “The sealed containers were incubated at 37°C for 72 h.” left out

The test system of assay [3] is G. lamblia WB trophozoites. The assay can be described thus: Trophozoite viability MLC determination. The settings on record: 3 days treatment, 3 days proliferation without drug. Format: cell-based, Giardia lamblia. The procedure:
The inhibition of metabolism enables the organism to resume proliferation once treatment is completed. To discriminate between the lethality of the promising compounds and the induction of metabolic inactivity by the promising compounds, the minimum lethal concentration (MLC) values were determined by treating the trophozoites with the test compounds for 3 days and transferring the resulting cultures to medium lacking the compounds for 3 days of proliferation. This assay was described previously for G. lamblia ([18]) and was adapted to E. histolytica in the current study.
as §2
Compounds were prepared by 2-fold serial dilutions in growth medium containing 0.5% DMSO (diluted from a starting concentration of 1 μM to 12 concentrations for all compounds except metronidazole, fumagillol, and TNP-470, which were diluted from 100 μM), and 100 μl/well was transferred in duplicate to the 96-well culture plate. Ten microliters of G. lamblia trophozoites was plated at a density of 10,000 cells/well. The plates were incubated under anaerobic condition in a BD GasPak EZ container system (BD Diagnostics) at 37°C for 72 h and surveyed visually under a microscope to check trophozoite survival, mobility, and attachment. […] The tubes were incubated under anaerobic condition for 3 days at 37°C and checked under a microscope. The MLC value was the concentration in the tube with the lowest compound concentration without any live organism.

The mark [4] stands for this setting: trophozoite growth, ATP content.

Usually IC50 stands for the concentration that gives 50% inhibition.

In brackets after ≈: the same amount, converted by molar mass. Read-outs that look alike come from different tables or passages of the source.

With `COC1C(OC(=O)NC(=O)CN2CCOCC2)CCC2(CO2)C1C1(C)OC1CC=C(C)C` (stereo not drawn) [Compound 3], the half-maximal inhibitory concentration (IC50) in assay [1] (setting [4]) amounted to 1.5 ± 0.1 nM; in assay [2] (setting [4]) it was 4 ± 0.1 nM. Besides, the “MLC G. lamblia WB” value in assay [3] is reported as 0.98 nM (≈ 0.443 ng/mL).
The matching figures for `COC1C(OC(=O)NC(=O)CN2CCC(O)CC2)CCC2(CO2)C1C1(C)OC1CC=C(C)C` (stereo not drawn) [Compound 4]: 4.6 ± 0.4 nM, 36 ± 4.2 nM and 3.9 nM (≈ 1.82 ng/mL).
For the compound `CO[C@@H]1[C@H](OC(=O)Nc2ccc(C(=O)O)cc2)CC[C@]2(CO2)[C@H]1[C@@]1(C)O[C@@H]1CC=C(C)C` [Compound 9, 4-(((((3R,4S,5S,6R)-5-methoxy-4-((2R,3R)-2-methyl-3-(3-methylbut-2-en-1-yl)oxiran-2-yl)-1-oxaspiro[2.5]octan-6-yl)oxy)carbonyl)amino)benzoic acid], the IC50 in assay [1] (setting [4]) was determined as 3.8 ± 0.6 nM; in assay [2] it was 6.7 ± 0.5 nM. Further, in assay [3], the “MLC G. lamblia WB” value came out at 3.9 nM (≈ 1.74 ng/mL).
Take `CCOC(=O)Cc1ccc(NC(=O)OC2CCC3(CO3)C(C3(C)OC3CC=C(C)C)C2OC)cc1` (stereo not drawn) [Compound 11]: the IC50 stood at 3.1 ± 0.5 nM in assay [1] (setting [4]) and 43 ± 3.4 nM in assay [2] (setting [4]). In assay [3], the “MLC G. lamblia WB” value worked out at 98 nM (≈ 47.8 ng/mL).
In the same order, the values of `COC1C(OC(=O)N2CCC(O)CC2)CCC2(CO2)C1C1(C)OC1CC=C(C)C` (stereo not drawn) [Compound 16] are 1.2 ± 0.04 nM, 2.9 ± 0.2 nM and 1.95 nM (≈ 0.799 ng/mL).
For the compound `CO[C@@H]1[C@H](OC(=O)/C=C/C=C/C=C/C=C/C(=O)O)CC[C@]2(CO2)[C@H]1[C@@]1(C)O[C@@H]1CC=C(C)C` [Fumagillin, reference compound], the figures for the IC50 in assay [1] and in assay [2] were 9 ± 2.2 nM and 47.9 ± 4.8 nM, respectively. Further, the “MLC G. lamblia WB” value in assay [3] was 125 nM (≈ 57.3 ng/mL).
With `Cc1ncc([N+](=O)[O-])n1CCO` [Metronidazole, reference compound], the IC50 came to 12700 ± 1340 nM in assay [1] (setting [4]) and 318 ± 16 nM in assay [2] (setting [4]). In assay [3], the “MLC G. lamblia WB” value is recorded as 7,700 nM.
